# Test results reported in patent EP3244885B1, “LIPOIC ACID FOR TREATING OR PREVENTING THREATENED MISCARRIAGE OR PRETERM DELIVERY” (priority 2015, dated 2016).
# What was measured:
# [1] = system: fragments of amniochorial membranes; conditions: pre-treatment with ALA; cited from earlier work
# [2] = system: primigravid patients with subchorionic hematoma; assay: Randomized clinical trial, vaginal capsules of example 4 (10 mg ALA) vs. progesterone and untreated controls: reabsorption of subchorionic hematoma, pelvic pain, vaginal bleeding, abortions; assay type: in vivo, women; conditions: number of abortions per group (27 patients each); ALA p ≤ 0.05 vs progesterone and control groups
# [3] = system: primigravid patients with threat of spontaneous abortion; assay type: in vivo, women; conditions: 60 patients per group, vaginal, ALA 10 mg/day or progesterone 400 mg daily, p ≤ 0.05; for Absence of symptoms: post treatment
# Experimental: Randomized trial, vaginal capsules of example 4 vs. progesterone and placebo Number of participants: 120 (60 medical device, 60 progesterone)
# In primigravid patients between the 7th and 12th week of gestation, the trial had the following objective: • evaluating whether the administration of 10mg ALA vaginally is associated with the reduction of the number of spontaneous abortions.
# Reduction or disappearance of symptoms related to the risk of spontaneous abortion after therapy
# (§1) • Absence of heartbeat • Presence of uterine abnormalities • Presence of fetal abnormalities • Presence of multiple pregnancies • Presence of pre-pregnancy or gestational abnormalities • Diagnosis of allergic reaction to progesterone • Presence of ongoing therapies with anticoagulants or antihypertensives • Presence of karyotypic abnormalities
# The women enrolled to be treated with ALA or progesterone were randomized into 2 groups: • 60 were administered with vaginal capsules containing 10 mg ALA 1 per day until resolution of the clinical condition • 60 were administered with vaginal capsules containing 400 mg progesterone daily.
# (§2) Three visits were scheduled: • 1) Enrolment • 2) 20 days after the first visit • 3) 60 days after the first visit
# [4] = system: primigravid patients with subchorionic hematoma; assay: Randomized clinical trial, vaginal capsules of example 4 (10 mg ALA) vs. progesterone and untreated controls: reabsorption of subchorionic hematoma, pelvic pain, vaginal bleeding, abortions; assay type: in vivo, women; conditions: for Pel. pain, 2nd visit / Vaginal bleeding, 2nd visit: 20 days after the first visit; for Pel. pain, 2nd visit: ALA p ≤ 0.05 vs the other two groups; for Vaginal bleeding, 2nd visit: no significant differences between the three groups; for Pel. pain, visit upon enrolment / Vaginal bleeding, visit upon enrolment: share of patients with symptom at enrolment (baseline); for Improvement (%) mean ± st. error (resorption of the subchorionic hematoma): vaginal, ALA 10 mg/day or progesterone 400 mg daily, ALA p ≤ 0.05 vs progesterone and control groups
# Experimental: Randomized trial, vaginal capsules of example 4 vs. progesterone and placebo Number of participants: […] (27 medical device, 27 progesterone, 22 placebo)
# In primigravid patients between the 7th and 12th week of gestation, the trial had the following objective: • evaluating whether the administration of 10 mg ALA vaginally is associated with the reabsorption of the subchorionic hematoma.
# Reduction or disappearance of: • pelvic pain • vaginal bleeding
# • Women aged 20-40 • Primigravid between 7th e and 12th weeks of gestation • Presence of pelvic pain • With or without moderate vaginal bleeding • Presence of the subchorionic hematoma detected by ultrasound
# as §1, with “• Absence of the fetus • Absence” for “• Absence”
# The women enrolled to be treated with ALA or progesterone were randomized into 2 groups: • 27 were administered with vaginal capsules containing 10 mg ALA 1 per day until resolution of the clinical condition • 27 were administered with vaginal capsules containing 400 mg progesterone daily.
# The women in the control group were those who refuse any medical treatment.
# as §2
# In each visit, a "blinded" operator carried out the ultrasound examination to evaluate the subchorionic hematoma and the subjective (pelvic pain) and objective (vaginal bleeding) symptoms were recorded.
Structure (SMILES),release of MMP9 and cytokine-induced prostaglandin E2 [1],weakening of membranes induced by TNF [1],Spontaneous abortions [2],Abortion [3],Absence of symptoms [3],"Pel. pain, 2nd visit [4]","Vaginal bleeding, 2nd visit [4]","Pel. pain, visit upon enrolment [4]","Vaginal bleeding, visit upon enrolment [4]",Improvement (%) mean ± st. error (resorption of the subchorionic hematoma) [4]
"O=C(O)CCCCC1CCSS1 (stereo not drawn) [ALA, α-lipoic acid]",able to inhibit,able to inhibit,3,15%,85%,0%,0%,100%,54%,83.9 ± 3.9%
"CC(=O)[C@H]1CC[C@H]2[C@@H]3CCC4=CC(=O)CC[C@]4(C)[C@H]3CC[C@]12C [Progesterone, reference compound]",,,6,25%,75%,14%,0%,100%,57%,49.7 ± 2.7%
